# Target: T1, Solute carrier family 12 member 5 (Homo sapiens, UniProt Q9H2X9)
# T1 sequence (Q9H2X9 whole entry): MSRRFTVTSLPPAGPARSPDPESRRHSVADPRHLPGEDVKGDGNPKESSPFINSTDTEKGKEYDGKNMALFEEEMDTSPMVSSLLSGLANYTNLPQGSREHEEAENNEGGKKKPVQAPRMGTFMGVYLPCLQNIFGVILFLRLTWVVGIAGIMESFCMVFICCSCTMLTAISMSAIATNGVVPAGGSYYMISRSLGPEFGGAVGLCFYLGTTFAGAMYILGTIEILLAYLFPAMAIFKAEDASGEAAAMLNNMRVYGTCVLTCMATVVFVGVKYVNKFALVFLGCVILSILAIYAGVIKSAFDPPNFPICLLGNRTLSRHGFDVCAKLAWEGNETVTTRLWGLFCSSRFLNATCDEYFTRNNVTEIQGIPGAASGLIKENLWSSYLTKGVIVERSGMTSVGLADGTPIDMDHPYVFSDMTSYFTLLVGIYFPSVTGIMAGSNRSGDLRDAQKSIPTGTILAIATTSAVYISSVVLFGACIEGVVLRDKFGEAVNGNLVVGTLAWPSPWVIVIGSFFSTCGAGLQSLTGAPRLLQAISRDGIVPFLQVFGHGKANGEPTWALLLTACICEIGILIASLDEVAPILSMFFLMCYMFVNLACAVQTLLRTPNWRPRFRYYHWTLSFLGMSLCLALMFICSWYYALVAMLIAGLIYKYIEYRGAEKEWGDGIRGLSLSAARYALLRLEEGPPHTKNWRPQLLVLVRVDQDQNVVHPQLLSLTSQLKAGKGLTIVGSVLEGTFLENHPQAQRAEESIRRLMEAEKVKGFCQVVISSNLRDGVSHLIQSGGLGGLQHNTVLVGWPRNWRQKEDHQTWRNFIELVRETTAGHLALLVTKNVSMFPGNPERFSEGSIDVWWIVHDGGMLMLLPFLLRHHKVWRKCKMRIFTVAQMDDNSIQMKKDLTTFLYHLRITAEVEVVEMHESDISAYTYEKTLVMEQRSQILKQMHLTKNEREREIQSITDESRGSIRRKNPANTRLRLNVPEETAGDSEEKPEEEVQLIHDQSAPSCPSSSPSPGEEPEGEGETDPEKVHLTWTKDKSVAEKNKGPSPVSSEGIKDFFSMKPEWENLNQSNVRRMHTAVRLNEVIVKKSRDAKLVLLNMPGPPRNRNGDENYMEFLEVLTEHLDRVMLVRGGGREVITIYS
# Assay: concentration-response of KCC2 transport modulators – cell-based, HEK293 KCC2, FluoZin-2 fluorescence, dose response (AID 1736)
# Conditions: not given
row,Compound,EC50 [µM]
1,O=C(Nc1ccc2oc(-c3ccccc3F)nc2c1)c1ccco1 [MLS000709180],827
2,O=C(NC1CCCC1)C(c1ccncc1)N(Cc1ccco1)C(=O)c1ccc(-c2ccccc2)[nH]1 (centres undefined) [MLS000718066],8.13
3,CC(=O)NCC1CCCN(c2nc3nonc3nc2N(C)Cc2ccccc2)C1 (centres undefined) [MLS000731683],5.1
4,CCc1cc(C(=O)N2CCCC(CNC(=O)c3ccc(-c4ccccc4)cc3)C2)no1 (centres undefined) [MLS000731765],3
5,CC(=O)NCCC(=O)N1CCCC(CNC(=O)c2ccc(-c3ccccc3)cc2)C1 (centres undefined) [MLS000733794],38.4
6,CSCCC(=O)N1CCCC(CNC(=O)c2ccc(-c3ccccc3)cc2)C1 (centres undefined) [MLS000733867],21
7,O=C(NNc1nc(-c2ccc(F)cc2)cs1)c1ccccc1 [MLS000763429],0.928
8,O=C(NNc1nc(-c2ccccc2)cs1)c1cccs1 [MLS000858987],0.189
9,CCC(CC)NC(=O)CSc1nnc(-c2c[nH]c3ccccc23)o1 [MLS001017505],2.04
10,CNc1ccc2oc(C[C@H]3O[C@@]4(CC[C@H]3C)O[C@H]([C@H](C)C(=O)c3ccc[nH]3)[C@H](C)C[C@H]4C)nc2c1C(=O)O [MLS001056783],9.96
11,"COc1ccc(N(CC(=O)Nc2cccc(C)c2C)S(=O)(=O)c2c(C)n[nH]c2C)cc1 [N-(2,3-dimethylphenyl)-2-[(3,5-dimethyl-1H-pyrazol-4-yl)sulfonyl-(4-methoxyphenyl)amino]ethanamide]",38.6
12,"CC(=NNC(=O)c1ccc(Cl)c(Cl)c1)c1ccc(Br)s1 [N-[1-(5-bromo-2-thiophenyl)ethylideneamino]-3,4-dichlorobenzamide]",1.46
13,CC(C)(C)NC(=O)C(c1ccncc1)N(Cc1ccco1)C(=O)c1ccc(-c2ccccc2)[nH]1 (centres undefined) [N-[2-(tert-butylamino)-2-oxo-1-pyridin-4-ylethyl]-N-(furan-2-ylmethyl)-5-phenyl-1H-pyrrole-2-carboxamide],19.1
14,CC(C)(C)NC(=O)C(c1cccs1)N(CC1CCCO1)C(=O)c1ccc(-c2ccccc2)[nH]1 (centres undefined) [N-[2-(tert-butylamino)-2-oxo-1-thiophen-2-ylethyl]-N-(2-oxolanylmethyl)-5-phenyl-1H-pyrrole-2-carboxamide],2.31
15,O=C(NN1C(=O)/C(=C/c2nc3ccccc3[nH]2)SC1=S)c1ccccc1Cl [N-{5-[1-(1H-Benzoimidazol-2-yl)-meth-(Z)-ylidene]-4-oxo-2-thioxo-thiazolidin-3-yl}-2-chloro-benzamide],0.128
16,c1ccc(-c2nnc(Sc3ncnc4c3cnn4-c3ccccc3)[nH]2)cc1 [SMR000019566],6.74
17,CCOC(=O)c1sc(Nc2nc3c(OC)cccc3s2)nc1C [SMR000027213],23.4
18,O=C(CSc1nccc(=O)[nH]1)N1CCc2ccccc2C1 [SMR000124078],17.1
19,CC(C)NC(=S)NNC1=c2cc(C(C)C)ccc2=NC1=O [SMR000242097],5.86
20,CC(=NNC(=S)Nc1c(C)cccc1C)c1cc2ccccc2o1 [SMR000260555],2.79
21,Cc1nc(SCc2ccc(F)cc2)c([N+](=O)[O-])[nH]1 [SMR000271028],4.66
22,Cc1ccc(C2=CSC3=NNC4(CCCCC4)NN23)cc1 [SMR000306481],2.22
23,CN(C)S(=O)(=O)c1ccc(Cl)c(C(=O)Nc2nc3ccccc3[nH]2)c1 [SMR000370637],4.52
24,Oc1c(Br)cc(Br)cc1C=NNC(=S)N[C@H]1CC2C=CC1C2 (some centres undefined) [SMR000455893],12.7

# Same assay, conditions: inactive by the depositor's call
row,Compound,EC50 [µM]
1,Sc1ccc2ccccc2n1 [MLS001006012],7.95
2,"CNC(=O)C(=O)Nc1nc(C23CC4CC(CC(C4)C2)C3)cs1 [N'-[4-(1-adamantyl)-1,3-thiazol-2-yl]-N-methyl-ethanediamide]",22.6
3,CCOc1ccc(C(C(=O)NC2CCCC2)N(CCCO)C(=O)c2ccc(-c3ccccc3)[nH]2)cc1 (centres undefined) [N-[2-(cyclopentylamino)-1-(4-ethoxyphenyl)-2-oxoethyl]-N-(3-hydroxypropyl)-5-phenyl-1H-pyrrole-2-carboxamide],843
4,O=c1c2ccccc2[nH]c(=S)n1CCN1CCC(=C(c2ccc(F)cc2)c2ccc(F)cc2)CC1 [SMR000058550],181
5,O=C(/C=C/c1cccs1)Nc1scc(-c2ccccc2)c1C(=O)O [SMR000364116],29

# Source: BindingDB's records for doi:10.7270/Q2M32T6M (Vanderbilt Screening Center for GPCRs, Ion Channels and …, 2009)
